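Cells were grown in 96-well plates and exposed to each compound for 48 hours at five concentrations; endpoints were interpolated linearly between bracketing concentrations, or set to the highest concentration if not reached. The concentration for full growth arrest is given as TGI.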
What was measured:
Assay in all cases: DTP human tumour cell line panel, 48 h
[1] = test system: MOLT-4 leukemia
[2] = test system: HL-60(TB) leukemia
[3] = test system: LOX IMVI melanoma
[4] = test system: MDA-N
[5] = test system: 786-0 renal
[6] = test system: UACC-62 melanoma
[7] = test system: MALME-3M melanoma
[8] = test system: NCI-H23 lung
[9] = test system: HCT-116 colon
[10] = test system: A549 NSCLC
[11] = test system: SNB-19 CNS
[12] = test system: ACHN renal
[13] = test system: MCF7 breast
[14] = test system: HOP-62 NSCLC
[15] = test system: HCT-15 colon
[16] = test system: UACC-257 melanoma
[17] = test system: T-47D breast
[18] = test system: RXF 393 renal
[19] = test system: SR leukemia

Row | SMILES | TGI [1] | TGI [2] | TGI [3] | TGI [4] | TGI [5] | TGI [6] | TGI [7] | TGI [8] | TGI [9] | TGI [10] | TGI [11] | TGI [12] | TGI [13] | TGI [14] | TGI [15] | TGI [16] | TGI [17] | TGI [18] | TGI [19]
1 | O=C(/C=C/c1ccccc1)c1cc(C(=O)/C=C/c2ccccc2)c(O)cc1O | > 100 µM | > 100 µM | > 100 µM | > 100 µM | > 100 µM | > 100 µM | > 100 µM | > 100 µM | > 100 µM | > 100 µM | > 100 µM | > 100 µM | > 100 µM | > 100 µM | > 100 µM | > 100 µM |  |  | 
2 | CC(=O)O[C@H]1CC[C@H]2[C@@H]3CCC4=C/C(=N/OCCN(C)C)CC[C@]4(C)[C@H]3CC[C@]12C | 13 µM | 3.68 µM | 11 µM | 14.4 µM | 22.8 µM | 15.4 µM | 28.6 µM | 25.6 µM | 16 µM | 25.6 µM | 22.4 µM | 26.2 µM | 17.9 µM | 27.5 µM | 12.8 µM | 21.1 µM | 19.5 µM | 27.8 µM | 
3 | CNn1c(-c2ccc(C)cc2)n[nH]c1=O | > 100 µM |  | > 100 µM |  | > 100 µM | > 100 µM | > 100 µM | > 100 µM | > 100 µM | > 100 µM | > 100 µM | > 100 µM | > 100 µM | > 100 µM | > 100 µM | > 100 µM | > 100 µM | > 100 µM | > 100 µM
4 | Cc1ccc2c(=O)c(-c3nnc(NC4CCCCC4)s3)c[nH]c2n1 | > 100 µM | > 100 µM | > 100 µM | > 100 µM | > 100 µM | > 100 µM | > 100 µM | > 100 µM | > 100 µM | > 100 µM | > 100 µM | > 100 µM | > 100 µM | > 100 µM | > 100 µM | > 100 µM | > 100 µM | > 100 µM | 
5 | CCCCCCc1cc2cc(-c3cn4c(n3)sc3ccccc34)c(=O)oc2cc1O | > 100 µM | > 100 µM | > 100 µM |  | > 100 µM | 5.58 µM |  | > 100 µM | > 100 µM | > 100 µM | > 100 µM | > 100 µM | > 100 µM | > 100 µM | > 100 µM | > 100 µM | > 100 µM | > 100 µM | > 100 µM
6 | CC(Cc1ccccc1)N(C)Cc1nc(C2CCC([N+](=O)[O-])O2)no1 (stereo not drawn) | > 100 µM |  | 11.6 µM |  | 24.6 µM | 22.1 µM | 25.6 µM | 19.4 µM | 25.3 µM | 27.4 µM | 25.2 µM |  | 15.5 µM | 19.7 µM | 7.07 µM | 21.2 µM | 66.1 µM | 37.6 µM | > 100 µM
7 | Nc1nc(Cl)c(N)c(NCC2(CO)CCC(CCc3ccccc3)C2)n1 (stereo not drawn) | 28 µM | 31.3 µM | 25.9 µM | 33.7 µM | 61.2 µM | 26 µM | 30.3 µM | 28.6 µM | 31.3 µM | > 100 µM | > 94 µM | > 68.9 µM | 34.9 µM | 36.7 µM | 41.8 µM | 18.8 µM | > 59 µM | 37.2 µM | 
8 | CNC(=O)CCCNC(=O)CCCCC(=O)N(C)C | > 100 µM |  |  | > 100 µM | > 100 µM | > 100 µM | > 100 µM | > 100 µM | > 100 µM | > 100 µM | > 100 µM | > 100 µM | > 100 µM | > 100 µM |  |  | > 100 µM | > 100 µM | 
9 | C=CCc1oc(C)nc1CCCC | > 100 µM | > 100 µM | > 100 µM | > 100 µM | > 100 µM | > 100 µM | > 100 µM | > 100 µM | > 100 µM | > 100 µM | > 100 µM | > 100 µM | > 100 µM | > 100 µM | > 100 µM | > 100 µM | > 100 µM | > 100 µM | 
10 | CCOC(=O)c1c(N2CCOCC2)ncn(-c2cccc(Cl)c2)c1=O | > 100 µM | > 100 µM | > 100 µM | > 100 µM | > 100 µM | > 100 µM | > 100 µM | > 100 µM | > 100 µM | > 100 µM | > 100 µM | > 100 µM | > 100 µM | > 100 µM | > 100 µM | > 100 µM | > 100 µM | > 100 µM | 
11 | COc1ccc(-c2c(-c3ccccc3)c(C)nc3[nH]c(=S)[nH]c(=S)c23)cc1OC | 63.6 µM | > 100 µM | > 100 µM | > 100 µM | > 100 µM | 40.2 µM | 90.1 µM | > 100 µM | 64.9 µM | > 100 µM | > 100 µM | > 100 µM | > 100 µM | 89.6 µM | > 100 µM | > 100 µM | > 100 µM | > 100 µM | 
12 | COc1ccc(C[C@@H](C(=O)O[C@H](C)[C@H](NC(=O)[C@@H](CC(C)C)N(C)C(=O)C2CCCN2C(=O)[C@H](C)O)C(=O)N2CCCCNC(=O)[C@@H](C)C(=O)[C@H](C(C)C)OC(=O)C[C@H](O)[C@H]2CC(C)C)N(C)C(C)=O)cc1 (stereo partly drawn) | 35.2 µM | 25.2 µM |  |  | > 50 µM | 22 µM | 49.1 µM | 42.5 µM | > 50 µM | > 50 µM | > 50 µM | > 50 µM | > 50 µM | > 50 µM | > 50 µM | > 50 µM | > 50 µM | 20.6 µM | 25 µM
13 | COc1cc2c(c(OC)c1OC)C(=O)[C@@H](O)[C@H]2NC(N)=O | > 100 µM | > 100 µM | > 100 µM | > 100 µM | > 100 µM | > 100 µM | > 100 µM | > 100 µM | > 100 µM | > 100 µM | > 100 µM | > 100 µM | > 100 µM | > 100 µM | > 100 µM | > 100 µM | > 100 µM | > 100 µM | 
